Data taken from US20140220112A1, “TRANSFORMATION OF DRUG CYCLODEXTRIN COMPLEX COMPOSITIONS INTO COMPOSITIONS OF MIXTURES OF LIPID VESICLE ENCAPSULATED DRUG AND CYCLODEXTRIN DRUG COMPLEXES” (Zoneone Pharma, Inc., priority 2013, published 2014).
Where “and” joins values, the source holds several entries; their conditions need not be identical. Equal values may be shown once. Values belong to the molecule of their own block, whether it stands above or below them.

Key:
[1] = Loading of hydroxypropyl cyclodextrin solubilized SN-38 into LUV containing acetate-PEI salt; type: physicochemical; details: LUV 20 mM total lipid, 12 hours at room temperature
Procedure: Lipids are dissolved in ethanol at a concentration of 500 mM POPC/Cholesterol/PEG-DSPE: 3/2/0.15 (591 mg/mL total lipid) at 65° C. and the 9 volumes of the trapping agent solution, polyethyleneimine (PEI) MW 1300 titrated to pH 7.4 with glacial acetic acid to form the acetate polyethyleneimine salt, is heated to 65° C. then added to the ethanol/lipid solution also at 65° C. This mixture is vortexed and transferred to a 10 mL thermostatically controlled (65° C.) Lipex Extruder. The LUV are formed by extruding 10 times through polycarbonate membranes having 0.1 um pores. After extrusion, the LUV are cooled on ice. A transmembrane electrochemical gradient is formed by placing the liposomes in dialysis tubing having a molecular weight cut off of 12,000-14,000. The samples are dialyzed against 5 mM HEPES, 10% sucrose pH 6.5 (stirring at 4° C.) at volume that is 100-fold greater than the liposome sample volume. The dialysate is changed after 2 h then 4 more times after 12 h each. The conductivity of the liposome solution was measured and was indistinguishable from the dialysis medium ˜40 μS/cm.
The LUV (20 mM total lipid containing a greater concentration of acetate-PEI salt on the inside than on the outside) are mixed with the hydroxypropyl cyclodextrin solubilized SN-38 (24 mg/mL hydroxylpropylcyclodextrin and 2 mg/mL SN-38) and allowed to incubate for 12 hours at room temperature. […]

[2] = Encapsulation of aripiprazole from Abilify (SBECD solution) into LUV, liquid/liquid protocol; type: physicochemical; details: LUV HSPC/Cholesterol/PEG-DSPE
Procedure: (§1) A portion of the lyophilized cake of GEODON® (Pfizer) was weighed out and dissolved in deionized water. The amount of the active ingredient (ziprasidone) was calculated by multiplying the cake weight by 0.0625 and added to liposomes from a 1 mg/mL solution. In certain experiments the lyophilized cake was reconstituted with the aqueous liposome preparation at defined lipid to drug ratios (liquid/liquid system). In other cases the lyophilized cake was directly rehydrated with the liposome suspension (liquid/solid system). The LUV were diluted with 5 mM Hepes, 10% sucrose pH 6.5. The liposome/drug solution was transferred to a 65° C. bath and swirled every 30 s for the first 3 min and then swirled every 5 min over a total heating time of 30 min. After heating for 30 min all samples were placed on ice for 15 min. the loaded liposomes were vortexed and 100 μL of sample was kept as the “before column” and the rest purified by ion exchange chromatography and gel filtration chromatography. Amberlite IRA-67 anion exchange resin was prepared by washing with 1N NaOH, followed by 3 washes with ddH2O and 3 washes with 3N HCl. The resin was exhaustively washed with dH2O until the pH of the supernatant was neutral. The SBCD was removed by adding 70 mg of resin to the eppendorf containing the liposomes and mixed well. The LUV solution was then purified by gel filtration chromatography (Sephadex G25) to remove residual extraliposomal drug. The turbid liposome fraction was collected and analyzed by HPLC.
ABILIFY® Injection is available in single-dose vials as a ready-to-use, 9.75 mg/1.3 mL (7.5 mg/mL) clear, colorless, sterile, aqueous solution for intramuscular use only. […] The active ingredient in Abilify® (Bristol-Myers), aripiprazole (7.5 mg/mL) was introduced to the LUV (HSPC/Cholesterol/PEG-DSPE: 3/2/0.15 mole ratio) at a drug to total lipid ratio of 50 g drug/mol HSPC (drug to total lipid ratio (wt/wt) of 0.12) or 100 g/mol (0.24 wt/wt) or 200 g/mol (0.48 wt/wt). […]

[3] = Loading of carfilzomib from the lyophilized Kyprolis vial into the core of added LUV; type: physicochemical
Procedure: A 30 mL preparation of LUVs composed of HSPC/Cholesterol/PEG2000-DSPE at lipid concentration of 15 mM lipid (circa 300 mg lipid) is prepared by the extrusion process through 100 nm polycarbonate membranes in a 250 mM ammonium sulfate solution to yield a 100 nm diameter LUV suspension of encapsulated ammonium sulfate. The LUV are dialyzed against 500 volumes of 0.15 M NaCl to remove non-encapsulated ammonium sulfate. The liposome suspension is then passed through a 0.2 micron sterile membrane into a sterile tube. The liposome solution (29 mL) is added aseptically to the vial containing 60 mg of carfilzomib at room temperature. The vial is gently mixed not shaken, for about 1 minute, or until the cake or powder is completely solubilized. The rehydrated solid is incubated for 40 minutes at 37° C. The carfilzomib is substantially loaded (>60%) into the core of the liposome at the end of the incubation period. The 100 nm diameter of the liposomes is not altered by this rehydration incubation process. The temperature of the vial is then reduced to 4° C. until the mixture of CD, drug-loaded liposome are injected into the subject.
The pharmacokinetic behavior of preparation of carfilzomib can be easily modulated by adjusting the amount of LUV containing ammonium sulfate or triethylamine sulfate that are added to the vial of Kyprolis®. […]

[4] = cited from earlier work
[5] = Incorporation of maropitant from Cerenia (SBCD) into lyophilized MLV with encapsulated triethylamine sulfate; type: physicochemical; details: MLV POPC/Chol/DSPG, 60° C. 30 minutes
Procedure: Maropitant citrate is used for the prevention of acute vomiting in dogs and cats. The MLV formulation described in example 4 is prepared with 250 mM triethylamine sulfate in place of ammonium sulfate. The formulation is lyophilized to provide a cake consisting of 120 mg sucrose and a 1.2 μmoles total lipid of a liposome with a lipid composition of POPC/Chol/DSPG mole ratio 3/2/0.15 with a higher concentration of triethylamine sulfate on the inside than on the outside. The contents of the 20 mL Cerenia® Injectable Solution vial which contains 10 mg maropitant, 63 mg sulphobutylether-beta-cyclodextrin, 3.3 mg meta-cresol per mL is slowly added to the vial of lyophilized liposomes and the vial is slowly rotated to rehydrate the MLV at room temperature. The milky white mixture is allowed to stand at 60° C. for 30 minutes. The percent of the maropitant that is incorporated into the liposome is about 60% of the total maropitant in the vial. […] Approximately 40% of the drug remains associated with the SBCD. This formulation is suitable for subcutaneous injection to prevent vomiting associated with chemotherapy.

[6] = Encapsulation of ziprasidone from Geodon (SBCD complex) into ammonium sulfate LUV liposomes, HPLC after purification; type: physicochemical; details: 65° C. 30 min; for % ziprasidone entrapped in liposome from suspension of ziprasidone: liquid/liquid system; for % ziprasidone entrapped in liposome from reconstitution of Geodon cake: liquid/solid system
Procedure: Alternatively, lipids were dissolved in ethanol at a concentration of 500 mM HSPC/Cholesterol/PEG-DSPE: 3/2/0.15 (591 mg/mL total lipid) at 65° C. and the 9 volumes of the trapping agent solution heated to 65° C. was added to the ethanol/lipid solution also at 65° C. and the mixture was vortexed and transferred to a 10 mL thermostatically controlled (65° C.) Lipex Extruder. The LUV were formed by extruding 10 times through polycarbonate membranes having 0.1 um pores. After extrusion the liposomes were cooled on ice. The transmembrane electrochemical gradient was formed by purification of the liposomes by dialysis in dialysis tubing having a molecular weight cut off of 12,000-14,000. The samples are dialyzed against 5 mM HEPES, 10% sucrose pH 6.5 (stirring at 4° C.) at volume that is 100 fold greater than the sample volume. The dialysate was changed after 2 h then 4 more times after 12 h each. The conductivity of the liposome solution was measured and was indistinguishable from the dialysis medium […].
The HPLC analysis of all other drugs used (such as ziprasidone, ariprazole, voriconazole etc) was performed on the same system as described for analysis of cholesterol. The mobile phase consists of −A=0.1% TFA, B=0.1% TFA/MeOH with a gradient elution starting at 40% B and increasing to 70% B in 7 min with 6 min equilibration back to 40% B. The flow rate is 1.0 mL/min, column temperature is 30 C, 10 μL injection and detection by absorbance at 254 nm. The retention times were as follows: ziprasidone 5.73 min, ariprazole 8.12 min, voriconazole 8.81 min.
as §1

[7] = input drug-to-lipid 100 ug/umol
[8] = input drug-to-lipid 200 ug/umol

% aripiprazole entrapped in liposome when transferred from Abilify ([2]; input drug-to-lipid 50 ug/umol): 60.16 ± 3.57%
% aripiprazole entrapped in liposome when transferred from Abilify [2, 7]: 48.4% and 48.36 ± 3.78%
% aripiprazole entrapped in liposome when transferred from Abilify [2, 8]: 43.2% and 43.22 ± 2.09%
SMILES: O=C1CCc2ccc(OCCCCN3CCN(c4cccc(Cl)c4Cl)CC3)cc2N1 [aripiprazole]

carfilzomib loaded into the core of the liposome ([3]; Kyprolis vial 60 mg + 29 mL LUV (circa 300 mg lipid), ammonium sulfate, 40 minutes at 37° C.): > 60%
amount of carfilzomib that remains complexed to the CD, fraction of total amount in the vial ([3]; liposomes added decreased from 300 mg to 200 mg of total lipid): about one-half
SMILES: CC(C)C[C@H](NC(=O)[C@H](CCc1ccccc1)NC(=O)CN1CCOCC1)C(=O)N[C@@H](Cc1ccccc1)C(=O)N[C@@H](CC(C)C)C(=O)[C@@]1(C)CO1 [carfilzomib]
solubility in water [4]: less than 10 micrograms/mL

% ziprasidone entrapped in liposome from suspension of ziprasidone ([6]; input drug-to-lipid 50 ug/umol): 87.92 ± 2.35%
% ziprasidone entrapped in liposome from reconstitution of Geodon cake ([6]; input drug-to-lipid 50 ug/umol): 90.42 ± 2.91%
% ziprasidone entrapped in liposome from reconstitution of Geodon cake ([6]; input drug-to-lipid 50 ug/umol, listed as Geodon): 90.4%
% ziprasidone entrapped in liposome from suspension of ziprasidone [6, 7]: 84.24 ± 3.14%
% ziprasidone entrapped in liposome from reconstitution of Geodon cake [6, 7]: 75.50 ± 2.91%
% ziprasidone entrapped in liposome from reconstitution of Geodon cake ([6]; input drug-to-lipid 100 ug/umol, listed as Geodon): 75.5%
% ziprasidone entrapped in liposome from suspension of ziprasidone [6, 8]: 80.38 ± 3.61%
% ziprasidone entrapped in liposome from suspension of ziprasidone ([6]; input drug-to-lipid 200 ug/umol, listed as Geodon): 80.4%
% ziprasidone entrapped in liposome from reconstitution of Geodon cake [6, 8]: 62.68 ± 3.27%
% ziprasidone entrapped in liposome from reconstitution of Geodon cake ([6]; input drug-to-lipid 400 ug/umol): 67.40 ± 3.88%
% ziprasidone entrapped in liposome from reconstitution of Geodon cake ([6]; input drug-to-lipid 400 ug/umol, listed as Geodon): 67.4%
% ziprasidone entrapped in liposome from reconstitution of Geodon cake ([6]; input drug-to-lipid 800 ug/umol): 41.38 ± 0.81%
SMILES: O=C1Cc2cc(CCN3CCN(c4nsc5ccccc45)CC3)c(Cl)cc2N1 [ziprasidone]

Continued, molecule first:

SMILES: CCc1c2c(nc3ccc(O)cc13)-c1cc3c(c(=O)n1C2)COC(=O)[C@]3(O)CC [SN-38, 7-Ethyl-10-Hydroxy-Camptothecin]
SN-38 transferred into the liposome, % of the added SN-38 [1]: approximately 50%

SMILES: COc1ccc(C(C)(C)C)cc1CN[C@H]1C2CCN(CC2)[C@H]1C(c1ccccc1)c1ccccc1 [maropitant]
percent of the drug remaining associated with the SBCD [5]: Approximately 40%
percent of the maropitant incorporated into the liposome, of total maropitant in the vial [5]: about 60%
resulting drug to lipid ratio [5]: about 140 grams/mole lipid
